Measurements from PubChem BioAssay (NCI).
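The compound was tested at five concentrations on cells cultured in 96-well plates, with a 48-hour exposure period. GI50 = concentration required for 50% inhibition of growth. At the TGI there is no net growth.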

Tests used:
Experiment in all cases: inhibition of tumour cell growth, NCI panel, 48 h
A498 renal = system: A498 renal
A549 NSCLC = system: A549 NSCLC
ACHN renal = system: ACHN renal
BT-549 breast = system: BT-549 breast
EKVX NSCLC = system: EKVX NSCLC
HCT-116 colon = system: HCT-116 colon
IGROV1 ovarian = system: IGROV1 ovarian
MDA-MB-435 = system: MDA-MB-435
SF-295 CNS = system: SF-295 CNS
UO-31 renal = system: UO-31 renal

Structure (SMILES) | GI50 (A498 renal) | TGI (A498 renal) | GI50 (A549 NSCLC) | TGI (A549 NSCLC) | GI50 (ACHN renal) | TGI (ACHN renal) | GI50 (BT-549 breast) | TGI (BT-549 breast) | GI50 (EKVX NSCLC) | TGI (EKVX NSCLC) | GI50 (HCT-116 colon) | TGI (HCT-116 colon) | GI50 (IGROV1 ovarian) | TGI (IGROV1 ovarian) | GI50 (MDA-MB-435) | TGI (MDA-MB-435) | GI50 (SF-295 CNS) | TGI (SF-295 CNS) | GI50 (UO-31 renal) | TGI (UO-31 renal)
O=C(c1cccs1)c1c(C(F)(F)F)n([O-])c2cc(F)c(F)cc2[n+]1=O | 1.46 µM | 3.79 µM | 6.16 µM | 12.5 µM | 0.419 µM | 1.4 µM | 1.91 µM | 3.24 µM | 2.44 µM | 6.73 µM | 1.82 µM | 8.01 µM | 1.86 µM | 3.92 µM | 2.62 µM | 5.28 µM | 3.71 µM | 7.3 µM | 2.97 µM | 5.51 µM
Cc1cc(NC(=O)CCc2ccc(N3C(N)=NC(N)=NC3(C)C)cc2)ccc1S(=O)(=O)F | > 23.7 µM | > 100 µM | 0.151 µM | > 100 µM | 26.2 µM | > 100 µM | 6.53 µM | > 91.9 µM | 0.884 µM | > 100 µM | 0.62 µM | > 100 µM |  | > 100 µM | 0.18 µM | > 100 µM | 2.61 µM | > 100 µM | > 100 µM | > 100 µM
CCC(=S)N(C)O |  | > 100 µM |  | > 100 µM |  | > 100 µM |  | > 100 µM |  | > 100 µM |  | 30.9 µM |  | > 37 µM |  | > 100 µM |  | > 100 µM |  | 68.9 µM
COc1ccc(/C=N/NC(=O)O)cc1 |  | > 100 µM |  | > 100 µM |  | > 100 µM |  | > 100 µM |  | > 100 µM |  | > 100 µM |  | > 100 µM |  | > 100 µM |  | > 100 µM |  | > 100 µM
CCN(C)S(=O)(=O)Nc1cccc(Nc2ncnc3cc(NC(=O)CCl)ccc23)c1Cl | 5.02 µM | 24.8 µM | 6.18 µM | 16.3 µM | 3.38 µM | 7.67 µM | 2.54 µM | 6.66 µM | 3.9 µM | 13.6 µM | 1.07 µM | 5.04 µM | 3.5 µM | 8.62 µM | 1.92 µM | 6.44 µM | 3.5 µM | 7.4 µM | 4.17 µM | 7.93 µM
C=C1CC2(OC1=O)c1ccccc1CCc1ccccc12 |  | 41.2 µM |  | 21.8 µM |  | 3.33 µM |  | 3.78 µM |  | 20.3 µM |  | 2.75 µM |  | 14.1 µM |  | 6.15 µM |  | 29.8 µM |  | 20.6 µM
